Measured values reported in US12493040B2, “Cancer detection method using sense of smell of nematode” (HIROTSU BIO SCIENCE INC., priority 2013, dated 2025).

Tests used:
[1] = test system: RNAi-treated eri-1 (mg366) nematodes; experiment: RNAi screening of olfactory receptor genes: chemotaxis assay of RNAi-treated nematodes to odorants; format: in vivo, Caenorhabditis elegans
Protocol: The RNAi assay was carried out by performing an RNAi method involving the feeding (feeding RNAi method) of eri-1 (mg366) (19), using an Ahringer library (37).
(§1) Nine adult eri-1 mutants were placed on an NGM plate containing isopropyl 1-D-1-thiogalactopyranoside (0.19 g/L), ampicillin (60 mg/L), and Escherichia coli (E. coli), and were then cultured for 4 days. Subsequently, the adult worms were used in a chemotaxis assay. The chemotaxis assay was carried out as previously reported (6, 17). In the chemotaxis assay, the present inventor has used 30 to 50 worms in each experiment in which 1 μl of 10^−3- or 10^−4-diluted odorant (low concentration), or 1 and 5 μl of undiluted odorants (high concentration) were used.
The z score and a control value in each single test from 2SD were calculated in all days (Table 3) or every day. The z score was used as a threshold indicating a great difference (−1.96 and 1.96, P<0.05). […] Accordingly, the present inventor has used the z score±1 (−0.96 and 0.96, P<0.33) as a weaker threshold.

[2] = test system: nematodes (C. elegans); experiment: Chemotaxis assay of wild-type, mutant, neuron-specific knockdown, neuron-ablated or interneuron-inhibited nematodes to odorants; format: in vivo, Caenorhabditis elegans
Protocol: Except for the eri-1 mutant that was cultured with Escherichia coli (E. coli) OP50, the nematodes (C. elegans) were cultured at 20° C. under standard conditions in a nematode growth medium (NGM) plate (36) comprising Escherichia coli NA22 as a food source. The used wild-type nematodes were of a Bristol N2 strain. As other nematode strains, GR1373: eri-1 (mg366), VC2123: sri-14 (ok2865), CX3410: odr-10 (ky225), and MT7929: unc-13 (e51) were used.
as §1
A gene to knock down the function of sri-14 in specific neurons was constructed, as previously reported (24). The target region of sri-14 (a 1.6-kb genome sequence) was amplified using the following two primers: […]
The gene expression of ASH was carried out using a sra-6 (20) promoter, and that of AWC was carried out using ceh-36 (39) and srd-17 promoters.
The present inventor has used mouse caspase-1 (mCasp1) for ablation of the AWA, AWB, AWC and ASH neurons. mCasp1 was each expressed by odr-10 (11), str-1 (15), ceh-36 (39), and sra-6 (20) promoters, respectively. Moreover, for inhibition of interneurons, unc-103 (gf) was used. The AIA-, AIB-, AIY-, or AIZ-specific expression of the unc-103 (gf) was carried out using a gcy-28.d (29), npr-9 (40), ttx-3 (41, 42), or lin-11 (43, 44) promoter, respectively.
Total RNA, which had been isolated using PureLink RNA Minikit (Ambion), was converted to cDNA by ReverTra Ace qPCR master mix using gDNA Remover (Toyobo) in accordance with the instructions made by the manufacturer. The sri-14 cDNA was amplified using the following two primers, was then digested with Nhe I and Kpn I, and was then inserted into a pPD-DEST vector (Invitrogen): […]

[3] = test system: AWA neurons; experiment: Calcium imaging (YC3.60, microfluidic device) of AWA neurons to diacetyl; format: in vivo, Caenorhabditis elegans
Protocol: (§2) In order to monitor the response of the AWA, AWB, AWC and ASH neurons, the present inventor has produced strains expressing YC3.60, using odr-10, str-1, odr-3, and sra-6 promoters (11, 15, 20, and 45), respectively. As previously reported (33, 46, 47), calcium imaging was carried out using a microfluidic device. In an experiment using such a microfluidic device, a nematode was captured by a microchannel such that the nose of the nematode was exposed to running water containing a solution of diacetyl [10^−5-diluted (low concentration) and 10^−3-diluted (high concentration)], or a solution with no smell, and thus, each nematode was immobilized. The room temperature was set from 20° C. to 23° C. The fluorescence image of YC3.60 was taken using Zeiss Axioplan 2 comprising 40× objective lens and a 3CCD digital camera (C7780, Hamamatsu Photonics). All images were recovered at an exposure time of 200 ms. The time stacks of AWA, AWB, AWC, and ASH cell bodies were captured, and thereafter, using AquaCosmos software (ver. 2.6, Hamamatsu Photonics), the emission ratio between a yellow fluorescent protein (YFP) and a cyan fluorescent protein (CFP) was analyzed. This ratio was calculated as YEP intensity/CFP intensity (R), and the average ratio in 10-second window (−10 to 0 seconds) was set as RO.

[4] = test system: ASH neurons; experiment: Calcium imaging (YC3.60, microfluidic device) of ASH neurons to diacetyl; format: in vivo, Caenorhabditis elegans
Protocol: as §2

[5] = test system: AWC neurons; experiment: Calcium imaging (YC3.60, microfluidic device) of AWC neurons to diacetyl; format: in vivo, Caenorhabditis elegans; details: wild-type; removal of high concentration of diacetyl (10^−3 diluted)
Protocol: as §2

[6] = test system: AWB neurons; experiment: Calcium imaging (YC3.60, microfluidic device) of AWB neurons to diacetyl; format: in vivo, Caenorhabditis elegans
Protocol: as §2

[7] = test system: nematodes (C. elegans); details: sri-14 mutant; 4M NaCl
Text: The present inventor has used 4 M NaCl for osmotic stimulus, and has assayed an osmotic pressure avoidance behavior, as previously reported (38).

[8] = high concentration of diacetyl (5 μl, undiluted)
[9] = unc-103 (gf) expression, high concentration of diacetyl (5 μl, undiluted)
[10] = high concentration of diacetyl (10^−3 diluted)
[11] = low concentration of diacetyl (10^−5 diluted)
[12] = low (10^−5 diluted) and high (10^−3 diluted) concentration of diacetyl

For `CC(=O)C(C)=O` [diacetyl], the “avoidance from diacetyl after RNAi of sri-14” value ([1]; RNAi of sri-14, high concentration of diacetyl (5 μl, undiluted)) was “significantly strong defect in the avoidance”, the “response (chemotaxis) to diacetyl after knockdown of odr-10” value ([1]; eri-1 mutant, RNAi of odr-10, low concentration (10; diluted) of diacetyl) was “specific defect in the response” and the “avoidance behavior from diacetyl after RNAi of srh-25, srh-79, srh-216 or srh-281” value ([1]; high concentration of diacetyl (5 μl, undiluted), repeated assay) was “significant and reproducible defect”. The “response of AWA and ASH double-ablated nematodes” value ([2]; high concentration of diacetyl) was “more severe defect”, the “avoidance behavior of ASH-ablated nematodes” value [2, 8] was “avoidance behavior was inhibited” and the “avoidance defect of sri-14 mutant with ASH-specific expression of sri-14 cDNA” value [2, 8] was “rescued”. For the same compound, the “avoidance defect of sri-14 mutant with AWA-, AWB- or AWC-specific expression of sri-14 cDNA” value [2, 8] was “partially rescued or was not rescued”, the “avoidance of AWA-ablated nematodes” value [2, 8] was “decrease in the avoidance” and the “chemotaxis of AWB- or AWC-ablated nematodes” value [2, 8] was “did not exhibit a defect in the chemotaxis”. The “attraction of AWA-ablated nematodes” value ([2]; low concentration of diacetyl (10^−3 diluted)) was “decrease in the attraction”, the “attraction of nematodes with interneurons inhibited” value ([2]; low concentration of diacetyl (10^−3 diluted), except for MY) was “not influenced” and the “chemotaxis of odr-10 mutant” value ([2]; high concentration of diacetyl) was “normal chemotaxis”. For the same compound, the “chemotaxis of odr-10 mutant” value ([2]; low concentration of diacetyl) was “reduced attraction”, the “avoidance response of sri-14 mutant” value ([2]; sri-14 (ok2865) mutant, high concentration of diacetyl) was “defect in the avoidance response” and the “reaction of sri-14 loss-of-function mutant” value ([2]; sri-14 mutant, low concentration of diacetyl) was “normal reaction”. For the same compound, the “response of nematodes with AIA, AIY or AIZ interneurons inhibited” value [2, 9] was “from an avoidance response to an attraction response”, the “response of nematodes with AIB interneurons inhibited” value [2, 9] was “attenuated the avoidance response” and the “avoidance from diacetyl, ASH-specific knockdown of sri-14” value ([2]; wild-type nematode, ASH-specific RNAi of sri-14, high concentration of diacetyl (5 μl, undiluted)) was “defect in the avoidance”. For the same compound, the “avoidance from diacetyl, AWC-specific knockdown of sri-14” value ([2]; wild-type nematode, AWC-specific RNAi of sri-14, high concentration of diacetyl (5 μl, undiluted)) was “abnormality was not observed”, the “calcium response of AWA neurons, odr-10 mutants and wild-type nematodes” value [3, 10] was “normally responded” and the “calcium response of AWA neurons, odr-10 mutants” value [3, 11] was “did not respond”. For the same compound, the “calcium response of AWA neurons, wild-type nematodes or sri-14 mutants” value [3, 11] was “intracellular calcium was increased”, the “Ca2+ response of ASH neurons, odr-10 mutant” value [4, 10] was “normally induced” and the “Ca2+ response of ASH neurons, sri-14 mutant” value [4, 10] was “significantly reduced”. The “Ca2+ response of ASH, ASH-specific knockdown of sri-14 in wild-type nematodes” value [4, 10] was “reduced”, the “calcium response of ASH neurons, AWA-ablated nematodes” value [4, 10] was “enhances the calcium response” and the “defect in ASH response of sri-14 mutant with ASH-specific expression of wild-type sri-14” value [4, 10] was “rescued”. For the same compound, the “Ca2+ response of ASH neurons, wild-type nematodes” value [4, 12] was “Ca2+ response only to a high concentration of diacetyl was detected”, the “calcium response of ASH neurons, unc-13 mutants vs wild type” value ([4]; unc-13(e51), high concentration of diacetyl (10^−3 diluted)) was “significantly larger” and the “Ca2+ response of AWC neurons after removal of diacetyl” value [5] was “a Ca2+ response occurs”. The “Ca2+ response of wild-type AWB neurons after removal of the smell” value [6, 12] was “slight Ca2+ response”, the “Ca2+ response of AWB neurons with ectopic expression of SRI-14” value ([6]; removal of high concentration of diacetyl (10^−3 diluted), vs wild-type AWB) was “significantly enhanced” and the “Ca2+ response of AWB neurons with ectopic expression of SRI-14” value ([6]; removal of low concentration of diacetyl (10^−5 diluted)) was “did not change the response”.
With `[Cl-].[Na+]` [NaCl] the “avoidance behavior to high osmotic stimulus” value [7] was “normal avoidance behavior”.
